Data from patent publication US9296723B2, “NAMPT inhibitors” (AbbVie Inc., priority 2012, dated 2016).

Experiments:
NAMPT = NAMPT (Homo sapiens, UniProt P43490); assay: Time-Resolved Fluorescence Resonance Energy Transfer (TR-FRET) Binding Assay of NAMPT; conditions: 6.8 nM NAMPT, 200 nM probe, equilibrated 3 hours, no substrates
Protocol: Determination of the utility of compounds having Formula (I) as binders to and inhibitors of NAMPT was performed using Time-Resolved Fluorescence Resonance Energy Transfer (TR-FRET) binding assays.
Time-Resolved Fluorescence Resonance Energy Transfer (TR-FRET) Binding Assay of NAMPT
Six L were transferred to 384-well low-volume plates ([…] #3673). To this, 12 L of a 1.5× solution containing enzyme, probe and antibody were added. […] Reactions were equilibrated at room temperature for 3 hours prior to reading on an Envision multi-label plate reader (Perkin Elmer; Ex=337 nm, Em=520 and 495 nm). Time-resolved FRET ratios (Em520/Em495) were normalized to controls, plotted as a function of compound concentration and fit with the four-parameter logistic equation to determine IC50s.

PC3 cells = assay: NAMPT Cell Proliferation Assay (Cell Titer Glo); format: cell-based; conditions: Homo sapiens, PC-3, 120 h, incubated 5 days, cell viability
Protocol: NAMPT Cell Proliferation Assay
PC3 cells were seeded in 96-well black plates (Corning #3904) at 500 cells/well in 90 µl of RPMI media containing 10% heat-inactivated FBS and incubated overnight at 37° C. and 5% CO2 to allow cells to attach to wells. The following day, test compounds were serially diluted in neat DMSO to 1000× final concentrations prior to dilution with RPMI media to 10× and 1% DMSO. Ten L of the 10× compounds were then transferred to wells containing cells to produce a dose response of 10-fold dilutions from […]. Cells were incubated for 5 days at 37° C. and 5% CO2, then cell viability was measured using Cell Titer Glo reagent (Promega #G7571). Percent inhibition values were calculated and fitted to a sigmoidal dose response curves using Assay Explorer software to determine IC50s.

Sequence of NAMPT (P43490 whole entry): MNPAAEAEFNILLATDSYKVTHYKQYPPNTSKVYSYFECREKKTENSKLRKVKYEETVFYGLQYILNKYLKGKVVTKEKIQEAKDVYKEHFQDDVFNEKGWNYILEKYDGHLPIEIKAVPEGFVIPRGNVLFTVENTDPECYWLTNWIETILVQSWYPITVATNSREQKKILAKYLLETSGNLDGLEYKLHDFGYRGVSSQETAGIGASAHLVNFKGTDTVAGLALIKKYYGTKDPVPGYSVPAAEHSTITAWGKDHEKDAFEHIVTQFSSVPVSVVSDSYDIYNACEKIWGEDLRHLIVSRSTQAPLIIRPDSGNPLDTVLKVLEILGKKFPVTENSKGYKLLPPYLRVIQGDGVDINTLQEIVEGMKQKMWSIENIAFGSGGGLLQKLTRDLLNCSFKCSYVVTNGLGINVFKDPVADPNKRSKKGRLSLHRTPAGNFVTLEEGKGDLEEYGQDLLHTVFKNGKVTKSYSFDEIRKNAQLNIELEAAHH

IC50 (NAMPT) | IC50 (PC3 cells) | SMILES
7.22 nM | 6.85 nM | O=C(Nc1ccc(O[C@@H]2CCN(C(=O)c3ccccc3)C2)cc1)N1CC(c2cccnc2)C1 [Example 83, N-(4-{[(3R)-1-benzoylpyrrolidin-3-yl]oxy}phenyl)-3-(pyridin-3-yl)azetidine-1-carboxamide]
17.2 nM | 26.5 nM | Cn1cccc1C(=O)N1CCC(c2ccc(NC(=O)N3CC(c4cccnc4)C3)cc2)C1 (stereo not drawn) [Example 285, N-(4-{1-[(1-methyl-1H-pyrrol-2-yl)carbonyl]pyrrolidin-3-yl}phenyl)-3-(pyridin-3-yl)azetidine-1-carboxamide]
83.6 nM | 22.4 nM | O=C(CC1CCOCC1)N1CC[C@@H](Oc2ccc(NC(=O)N3CC(c4cccnc4)C3)cc2)C1 [Example 76, 3-(pyridin-3-yl)-N-(4-{[(3R)-1-(tetrahydro-2H-pyran-4-ylacetyl)pyrrolidin-3-yl]oxy}phenyl)azetidine-1-carboxamide]
34.9 nM | 12.5 nM | CC(C)(C)C(=O)N1CC[C@@H](Oc2ccc(NC(=O)N3CC(c4cccnc4)C3)cc2)C1 [Example 322, N-(4-{[(3R)-1-(2,2-dimethylpropanoyl)pyrrolidin-3-yl]oxy}phenyl)-3-(pyridin-3-yl)azetidine-1-carboxamide]
24 nM | 7.89 nM | O=C(Nc1ccc(OC2CN(C(=O)c3nccs3)C2)cc1)N1CC(c2cccnc2)C1 [Example 154, 3-(pyridin-3-yl)-N-(4-{[1-(1,3-thiazol-2-ylcarbonyl)azetidin-3-yl]oxy}phenyl)azetidine-1-carboxamide]
96.2 nM | 207 nM | CN(C)CCC(=O)N1CCC(c2ccc(NC(=O)N3CC(c4cccnc4)C3)cc2)C1 (stereo not drawn) [Example 266, N-{4-[1-(N,N-dimethyl-beta-alanyl)pyrrolidin-3-yl]phenyl}-3-(pyridin-3-yl)azetidine-1-carboxamide]
76.7 nM | 63.1 nM | CC(=O)N1CCC(c2ccc(NC(=O)N3CC(c4cccnc4)C3)cc2)C1 (stereo not drawn) [Example 277, N-[4-(1-acetylpyrrolidin-3-yl)phenyl]-3-(pyridin-3-yl)azetidine-1-carboxamide]
117 nM | 58.9 nM | O=C(Nc1ccc(C2CCN(C(=O)[C@H]3CCCO3)CC2)cc1)N1CC(c2cccnc2)C1 [Example 54, 3-(pyridin-3-yl)-N-(4-{1-[(2R)-tetrahydrofuran-2-ylcarbonyl]piperidin-4-yl}phenyl)azetidine-1-carboxamide]
203 nM | 7270 nM | O=C1CC[C@@H](C(=O)N2CCC(c3ccc(NC(=O)N4CC(c5cccnc5)C4)cc3)C2)N1 (stereo partly drawn) [Example 273, N-{4-[1-(5-oxo-L-prolyl)pyrrolidin-3-yl]phenyl}-3-(pyridin-3-yl)azetidine-1-carboxamide]
27.3 nM | 59.5 nM | Cn1cccc1C(=O)N1CCC(Oc2ccc(NC(=O)N3CC(c4cccnc4)C3)cc2)CC1 [Example 36, N-[4-({1-[(1-methyl-1H-pyrrol-2-yl)carbonyl]piperidin-4-yl}oxy)phenyl]-3-(pyridin-3-yl)azetidine-1-carboxamide]
55.4 nM | 74.9 nM | CC(C)(C)OC(=O)N1CC[C@@H](Oc2ccc(NC(=O)N3CC(c4cccnc4)C3)cc2)C1 [Example 60, tert-butyl (3R)-3-[4-({[3-(pyridin-3-yl)azetidin-1-yl]carbonyl}amino)phenoxy]pyrrolidine-1-carboxylate]
30.9 nM | 17.8 nM | O=C(CC1CC1)N1CC[C@@H](Oc2ccc(NC(=O)N3CC(c4cccnc4)C3)cc2)C1 [Example 81, N-(4-{[(3R)-1-(cyclopropylacetyl)pyrrolidin-3-yl]oxy}phenyl)-3-(pyridin-3-yl)azetidine-1-carboxamide]
9.73 nM | 7.24 nM | CC(C)(O)C(=O)N1CC[C@@H](Oc2ccc(NC(=O)N3CC(c4cccnc4)C3)cc2)C1 [Example 82, N-(4-{[(3R)-1-(2-hydroxy-2-methylpropanoyl)pyrrolidin-3-yl]oxy}phenyl)-3-(pyridin-3-yl)azetidine-1-carboxamide]
168 nM | 76.7 nM | O=C(Nc1ccc(O[C@H]2CCN(C(=O)C3CC3)C2)cc1)N1CC(c2cccnc2)C1 [Example 97, N-(4-{[(3S)-1-(cyclopropylcarbonyl)pyrrolidin-3-yl]oxy}phenyl)-3-(pyridin-3-yl)azetidine-1-carboxamide]
101 nM | 114 nM | COCCOCC(=O)N1CCC(c2ccc(NC(=O)N3CC(c4cccnc4)C3)cc2)C1 (stereo not drawn) [Example 280, N-(4-{1-[(2-methoxyethoxy)acetyl]pyrrolidin-3-yl}phenyl)-3-(pyridin-3-yl)azetidine-1-carboxamide]
507 nM | 298 nM | CN(C)CCC(=O)N1CC[C@@H](Oc2ccc(NC(=O)N3CC(c4cccnc4)C3)cc2)C1 [Example 306, N-(4-{[(3R)-1-(N,N-dimethyl-beta-alanyl)pyrrolidin-3-yl]oxy}phenyl)-3-(pyridin-3-yl)azetidine-1-carboxamide]
20.8 nM | 15.4 nM | O=C(Nc1ccc(OC2CN(C(=O)c3ccoc3)C2)cc1)N1CC(c2cccnc2)C1 [Example 151, N-(4-{[1-(furan-3-ylcarbonyl)azetidin-3-yl]oxy}phenyl)-3-(pyridin-3-yl)azetidine-1-carboxamide]
86.2 nM | 59.1 nM | O=C(Nc1ccc(C2CCN(C(=O)C3CCOC3)C2)cc1)N1CC(c2cccnc2)C1 (stereo not drawn) [Example 68, 3-(pyridin-3-yl)-N-{4-[1-(tetrahydrofuran-3-ylcarbonyl)pyrrolidin-3-yl]phenyl}azetidine-1-carboxamide]
191 nM | 691 nM | O=C(CN1CCCC1)N1CCC(c2ccc(NC(=O)N3CC(c4cccnc4)C3)cc2)C1 (stereo not drawn) [Example 265, 3-(pyridin-3-yl)-N-{4-[1-(pyrrolidin-1-ylacetyl)pyrrolidin-3-yl]phenyl}azetidine-1-carboxamide]
9.76 nM | 7.66 nM | O=C(Nc1ccc(C2CCN(C(=O)c3ccco3)C2)cc1)N1CC(c2cccnc2)C1 (stereo not drawn) [Example 286, N-{4-[1-(furan-2-ylcarbonyl)pyrrolidin-3-yl]phenyl}-3-(pyridin-3-yl)azetidine-1-carboxamide]
56.6 nM | 62.2 nM | CC(C)C(=O)N1CCC(c2ccc(NC(=O)N3CC(c4cccnc4)C3)cc2)C1 (stereo not drawn) [Example 65, N-{4-[1-(2-methylpropanoyl)pyrrolidin-3-yl]phenyl}-3-(pyridin-3-yl)azetidine-1-carboxamide]
193 nM | 541 nM | CCCC(C)CN1CC(c2ccc(NC(=O)N3CC(c4cccnc4)C3)cc2)C1 (stereo not drawn) [Example 249, N-{4-[1-(2-methylpentyl)azetidin-3-yl]phenyl}-3-(pyridin-3-yl)azetidine-1-carboxamide]
29.3 nM | 8.06 nM | O=C(CC1CC1)N1CCC(c2ccc(NC(=O)N3CC(c4cccnc4)C3)cc2)CC1 [Example 55, N-{4-[1-(cyclopropylacetyl)piperidin-4-yl]phenyl}-3-(pyridin-3-yl)azetidine-1-carboxamide]
387 nM | 608 nM | O=C(Nc1ccc(O[C@H]2CCN(C(=O)C3CCOC3)C2)cc1)N1CC(c2cccnc2)C1 (stereo partly drawn) [Example 92, 3-(pyridin-3-yl)-N-(4-{[(3S)-1-(tetrahydrofuran-3-ylcarbonyl)pyrrolidin-3-yl]oxy}phenyl)azetidine-1-carboxamide]
317 nM | 617 nM | O=C(Nc1ccc(C2CN(CC3CCCC3)C2)cc1)N1CC(c2cccnc2)C1 [Example 245, N-{4-[1-(cyclopentylmethyl)azetidin-3-yl]phenyl}-3-(pyridin-3-yl)azetidine-1-carboxamide]
38.9 nM | 6.78 nM | O=C(Nc1ccc(C2CCN(C(=O)[C@@H]3CCCO3)CC2)cc1)N1CC(c2cccnc2)C1 [Example 52, 3-(pyridin-3-yl)-N-(4-{1-[(2S)-tetrahydrofuran-2-ylcarbonyl]piperidin-4-yl}phenyl)azetidine-1-carboxamide]
19.8 nM | 6.04 nM | CCCC(=O)N1CC[C@@H](Oc2ccc(NC(=O)N3CC(c4cccnc4)C3)cc2)C1 [Example 87, N-(4-{[(3R)-1-butanoylpyrrolidin-3-yl]oxy}phenyl)-3-(pyridin-3-yl)azetidine-1-carboxamide]
9.22 nM | 6.11 nM | O=C(Nc1ccc(OC2CN(C(=O)c3ccco3)C2)cc1)N1CC(c2cccnc2)C1 [Example 115, N-(4-{[1-(furan-2-ylcarbonyl)azetidin-3-yl]oxy}phenyl)-3-(pyridin-3-yl)azetidine-1-carboxamide]
122 nM | 63.2 nM | O=C(Nc1ccc(O[C@@H]2CCN(C(=O)C3CCOC3)C2)cc1)N1CC(c2cccnc2)C1 (stereo partly drawn) [Example 80, 3-(pyridin-3-yl)-N-(4-{[(3R)-1-(tetrahydrofuran-3-ylcarbonyl)pyrrolidin-3-yl]oxy}phenyl)azetidine-1-carboxamide]
26.3 nM | 36.5 nM | CCCn1cc(-c2ccc(NC(=O)N3CC(c4cccnc4)C3)cc2)cn1 [Example 158, N-[4-(1-propyl-1H-pyrazol-4-yl)phenyl]-3-(pyridin-3-yl)azetidine-1-carboxamide]
